# Measured values published in patent publication US9096550B2, “Bryostatin analogues and methods of making and using thereof” (UNIVERSITY OF UTAH RESEARCH FOUNDATION, priority 2008, dated 2015).
# Experiments:
# Format in all cases: cell-based, human
# [1] = test system: PKC delta; assay: Phosphorylation of PKC delta at Y311 in LNCaP cells (western blot)
# Protocol: FIGS. 14A-C show the induction of cFos and phosphorylation of PKC at Y311 in LNCaP cells. […] The proteins from the lysates were separated by 10% SDS-PAGE, electroblotted to nitrocellulose membranes and probed with anti-cFos primary and anti-rabbit secondary antibodies, followed by ECL visualization. Data are representative of four independent experiments. […] The cFos signal was normalized to the β-actin signal to correct for loading and the response induced by 100 nM PMA at 2 hrs was taken as 100%. Data represent the means+SEM of four independent experiments. […] Data represent the means+SEM of three independent experiments.
# LNCaP cells treated for 48 hours with the different drugs or with DMSO as control were washed and re-suspended in phosphate buffered saline. Yo-Pro-1 (Invitrogen, Carlsbad, Calif.) was added to a final concentration of 1 μM and the cells were incubated for 20 min at 4° C. in the dark. 7-Aminoactinomycin D (7-AAD) (Invitrogen, Carlsbad, Calif.) was then added at a 5 μg/mL final concentration 10 minutes before analysis by flow cytometry using the FACSCalibur system (Becton Dickinson, Mountain View, Calif.). Data were analyzed with FlowJo 7 (Tree Star Inc., Ashland, Oreg.). The Yo-Pro-1 positive cells were considered apoptotic and were expressed as % of total cells. […]
# [2] = test system: U937 cells; assay: Attachment of U937 cells; details: for attachment of U937 cells: compound alone, 72 hours
# Protocol: (§1) U937 cells (Sundstrom, C.; Nilsson, K.: Establishment and characterization of a human histiocytic lymphoma cell line (U-937). Int. J. Cancer 1976, 17: 565-577.), purchased from ATCC (Manassas, Va.) and cultured in RPMI-1640 medium supplemented with 10% FBS (ATCC, Manassas, Va.), were plated in 35 mm dishes at a density of 2×10^5 living cells/ml and treated with different concentrations of the drugs or DMSO. After 72 hours, the number of cells in the supernatant (non-attached cells) and the number of attached cells (after trypsinization) were counted using a Beckman particle counter (Beckman Coulter Inc., Fullerton, Calif.). The number of attached cells is expressed as percent of total cells (FIGS. 8-10).
# (§2) U937 cells were treated with PMA (0.1-100 nM), bryostatin 1 (1-1000 nM), the indicated compound (1-1000 nM), 10 nM PMA with different concentrations of bryostatin 1 (1-1000 nM) or 10 nM PMA with different concentrations of indicated compound (1-1000 nM) for 72 hours. The number of attached cells and total cells were counted and the attached cells were graphed as percent of total cells. The bars and error bars represent the average and the standard error of the mean of five independent experiment (FIGS. 8-10).
# (§3) U937 cells (Sundstrom and Nilsson, 1976), purchased from ATCC (Manassas, Va.) and cultured in RPMI-1640 medium supplemented with 10% FBS (ATCC, Manassas, Va.), were plated in 35 mm dishes at a density of 1×10^5 living cells/ml and treated with different concentrations of the drugs or DMSO. After 72 hours, the number of cells in the supernatant (non-attached cells) and the number of attached cells (after trypsinization) were counted using a particle counter. The number of attached cells is expressed as percent of total cells.
# (§4) U937 cells were treated with PMA (0.01-100 nM), bryostatin1 (0.1-1000 nM), analogue 12 (MERLE 28) (0.1-1000 nM), 10 nM PMA with different concentrations of bryostatin 1 (0.1-1000 nM) or 10 nM PMA with different concentrations of analogue 12 (0.1-1000 nM). The number of attached cells and total cells were counted and the attached cells were graphed as percent of total cells. The bars and error bars represent the average and the standard error of the mean of at least three independent experiments.
# as §3, with “U-937” for “U937”
# as §2, with “U-937” for “U937”, “at least three” for “five”, “experiments.” for “experiment (FIGS. 8-10).”
# [3] = test system: U937 cells; assay: Inhibition of U937 cell proliferation; details: for inhibition of U937 cell proliferation: compound alone
# Protocol: as §1
# as §2, with “nM).” for “nM) for 72 hours.”, “attached and non-attached” for “attached”, “was” for “and total cells were”, “number” for “attached cells were graphed as percent”, “cells was expressed as % of control.” for “cells.”, “experiments” for “experiment”
# as §3
# as §4, with “12” for “12 (MERLE 28)”, “The numbers” for “The number”, “attached” for “attached cells”, “and non-attached” for “and total”, “the number” for “the attached cells were graphed as percent”, “total cells was expressed as % of control.” for “total cells.”
# as §3, with “U-937” for “U937”
# U-937 cells were treated with PMA (0.1-100 nM), bryostatin 1 (1-1000 nM), the indicated compound (1-1000 nM), 10 nM PMA with different concentrations of bryostatin 1 (1-1000 nM) or 10 nM PMA with different concentrations of indicated compound (1-1000 nM). The number of attached and non-attached cells was counted and the number of total cells was expressed as % of control. The bars and error bars represent the average and the standard error of the mean of at least three independent experiments.
# [4] = 10 nM PMA with different concentrations of compound
Compound,phosphorylation of PKC delta at Y311 [1],attachment of U937 cells [2],inhibition of U937 cell proliferation [3],"block of PMA-induced attachment of U937 cells [2, 4]",attachment of U937 cells ([2]; listed as Bryostatin 1),"block of PMA inhibition of U937 cell proliferation [3, 4]",inhibition of U937 cell proliferation ([3]; listed as Bryostatin 1)
CCCCCCCCCCCCCC(=O)O[C@@H]1[C@@H](C)[C@@]2(O)[C@@H](C=C(CO)C[C@]3(O)C(=O)C(C)=C[C@@H]23)[C@@H]2C(C)(C)[C@]12OC(C)=O [PMA],rapid phosphorylation,induces attachment,inhibits cell proliferation,–,–,–,–
CCC/C=C/C=C/C(=O)O[C@H]1/C(=C/C(=O)OC)C[C@H]2C[C@H]([C@@H](C)O)OC(=O)C[C@H](O)C[C@@H]3C[C@H](OC(C)=O)C(C)(C)[C@](O)(C[C@@H]4C/C(=C/C(=O)OC)C[C@H](/C=C/C(C)(C)[C@]1(O)O2)O4)O3 [bryostatin 1],only very weak phosphorylation,much diminished effect,not strongly antiproliferative,blocks the effect of the phorbol ester in a dose-dependent manner,much less effect on either response,able to block the effect of PMA in a dose dependent manner,much less effect on either response
